Experimental data taken from patent US11739124B2, “Acetyl-CoA carbosylase2 antisense oligonucleotides” (OLIPASS CORPORATION, priority 2018, dated 2023).

What was measured:
10-mer complementary DNA = assay: Binding affinity for complementary DNA by Tm (UV/Vis); details: aqueous buffer pH 7.16, 10 mM sodium phosphate, 100 mM NaCl; for Tm Value, 10-mer DNA against C-Terminal: duplex of PNA and 10-mer complementary DNA targeting the C-terminal of PNA; for Tm Value, 10-mer DNA against N-Terminal: duplex of PNA and 10-mer complementary DNA targeting the N-terminal of PNA
Experimental: The PNA derivatives of Formula I were evaluated for their binding affinity for 10-mer DNAs complementarily targeting either the N-terminal or C-terminal. The binding affinity was assessed by Tm value for the duplex between PNA and 10-mer complementary DNA. The duplex between PNA derivatives and fully complementary DNAs show Tm values too high to be reliably determined in aqueous buffer solution, since the buffer solution tends to boil during the Tm measurement. Tm values for full length PNAs can be predicted and compared based on the Tm value for the duplex between PNA and 10-mer complementary DNA.
Tm values were determined on a UV/Vis spectrometer as follows. A mixed solution of […] PNA oligomer and 4 μM complementary 10-mer DNA in 4 mL aqueous buffer (pH 7.16, 10 mM sodium phosphate, 100 mM NaCl) in 15 mL polypropylene falcon tube was incubated at 90° C. for a few minute and slowly cooled down to ambient temperature. Then the solution was transferred into a 3 mL quartz UV cuvette equipped with an air-tight cap, and the cuvette was mounted on an Agilent 8453 UV/Visible spectrophotometer. The absorbance changes at 260 nm were recorded with increasing the temperature of the cuvette by either 0.5 or 1° C. per minute. From the absorbance vs temperature curve, the temperature showing the largest increase rate in absorbance was read out as the Tm between PNA and 10-mer DNA. The DNAs for Tm measurement were purchased from Bioneer (www.bioneer.com, Dajeon, Republic of Korea) and used without further purification.

human ACC2 mRNA = assay: Inhibition of ACC2 mRNA formation in C2C12 (Real-Time qPCR); type: cell-based, mouse; details: C2C12 cells, 24 hours; for reduction of ACC2 mRNA compared to control: standardized by GAPDH; for amount of ACC2 mRNA: 100 zM to 1 fM, concentration-dependently
Experimental: “ASO 1” was evaluated by Real-Time qPCR for its ability to down-regulate the ACC2 mRNA formation in C2C12 as described below.
[Cell Culture & ASO Treatment] C2C12 cells (Cat. No. CRL-1772, ATCC) were maintained in Dulbecco Modified Eagle Medium (DMEM, Cat. No. 12-604F, Lonza) supplemented with 10% Fetal Bovine Serum (Cat. No. 10099-41, GIBCO) and 1% streptomycin/penicillin (Cat. No. 15140-122, GIBCO), which was grown at 37° C. and under 5% CO2 condition. C2C12 cells (2×10^5) stabilized for 24 hours in 60 mm culture dish were incubated for 24 hours with “ASO 1” at 0 (negative control) and 100 zM to 1 fM.
[RNA Extraction & cDNA Synthesis] Total RNA was extracted using RNeasy Mini kit (Qiagen, Cat. No. 714106) according to the manufacturer's instructions from “ASO 1” treated cells and cDNA was prepared from 400 ng of RNA by use of PrimeScript™ 1st strand cDNA Synthesis Kit (Takara, Cat. No. 6110A). To a mixture of 400 ng of RNA, 1 microliter of random hexamer, and 1 microliter of dNTP (10 mM) in PCR tube was added DEPC-treated water to a total volume of 10 microliter, which was reacted at 65° C. for 5 minutes. cDNA was synthesized by adding 10 microliter of PrimeScript RTase to the reaction mixture and reacting at 30° C. for 10 minutes and at 42° C. for 60 minutes, successively.
[Quantitative Real-Time PCR] In order to evaluate the expression level of […] ACC2 mRNA real-time qPCR was performed with synthesized cDNA by use of Tagman probe. The mixture of cDNA, Taqman probe (Thermo, Mm01204651), IQ supermix (BioRad, Cat. No. 170-8862), and nuclease free water in PCR tube was under reaction by use of CFX96 Touch Real-Time system (BioRad) according to the cycle conditions specified as follows: at 95° C. for 3 min (primary denaturation) followed by 50 cycles of 10 sec at 95° C. (denaturation) and 30 sec at 60° C. (annealing and polymerization). Fluorescence intensity was measured at the end of every cycle and the result of PCR was evaluated by the melting curve. After the threshold cycle (Ct) of each gene was standardized by that of GAPDH, the change of Ct was compared and analyzed.
“ASO 6” was evaluated by Real-Time qPCR for its ability to down-regulate the ACC2 mRNA formation in C2C12 as described below.
[Cell Culture & ASO Treatment] C2C12 cells (Cat. No. CRL-1772, ATCC) were maintained in Dulbecco Modified Eagle Medium (DMEM, Cat. No. 12-604F, Lonza) supplemented with 10% Fetal Bovine Serum (Cat. No. 10099-41, GIBCO) and 1% streptomycin/penicillin (Cat. No. 15140-122, GIBCO), which was grown at 37° C. and under 5% CO2 condition. C2C12 cells (2×10^5) stabilized for 24 hours in 60 mm culture dish were incubated for 24 hours with “ASO 6” at 0 (negative control) and 100 zM to 1 fM.
[RNA Extraction & cDNA Synthesis] Total RNA was extracted using RNeasy Mini kit (Qiagen, Cat. No. 714106) according to the manufacturer's instructions from “ASO 6” treated cells and cDNA was prepared from 400 ng of RNA by use of PrimeScript™ 1st strand cDNA Synthesis Kit (Takara, Cat. No. 6110A). To a mixture of 400 ng of RNA, 1 microliter of random hexamer, and 1 microliter of dNTP (10 mM) in PCR tube was added DEPC-treated water to a total volume of 10 microliter, which was reacted at 65° C. for 5 minutes. cDNA was synthesized by adding 10 microliter of PrimeScript RTase to the reaction mixture and reacting at 30° C. for 10 minutes and at 42° C. for 60 minutes, successively.
“ASO 5” was evaluated by the same method as described below.
[Cell Culture & ASO Treatment] C2C12 cells (Cat. No. CRL-1772, ATCC) were maintained in Dulbecco Modified Eagle Medium (DMEM, Cat. No. 12-604F, Lonza) supplemented with 10% Fetal Bovine Serum (Cat. No. 10099-41, GIBCO) and 1% streptomycin/penicillin (Cat. No. 15140-122, GIBCO), which was grown at 37° C. and under 5% CO2 condition. C2C12 cells (2×10^5) stabilized for 24 hours in 60 mm culture dish were incubated for 24 hours with “ASO 5” at 0 (negative control) and 100 zM to 1 fM.
[RNA Extraction & cDNA Synthesis] […]

ACC2 exon 12 = assay: Exon skipping of ACC2 mRNA in C2C12 (nested RT-PCR, electrophoresis, Sanger sequencing); type: cell-based; details: C2C12 cells, 5 hours, 0.1 aM to 1 fM
Experimental: “ASO 1” was evaluated for its ability to induce the skipping of ACC2 “exon 12” in C2C12 cells as described below.
[Cell Culture & ASO Treatment] C2C12 cells (2×10^5) (Cat. No. CRL-1772, ATCC) were grown in 60 mm culture dish containing DMEM medium (Dulbecco Modified Eagle Medium: DMEM) (Cat. No. 12-604F, Lonza) supplemented with 10% FBS (Fetal Bovine Serum) (Cat. No. 10099-41, GIBCO) and 1% streptomycin/penicillin (Cat. No. 15140-122, GIBCO) under 5% CO2 atmosphere at 37° C. The cells were treated either with nothing (negative control) or with an aliquot of aqueous stock solution of “ASO 1” for 5 hours at 100 zM to 1 fM.
[RNA Extraction & Nested PCR] Total RNA was extracted using RNeasy Mini kit (Qiagen, Cat. No. 714106) according to the manufacturer's instructions from “ASO 1” treated cells and cDNA was prepared from 200 ng of RNA by use of SuperScript™ III One-Step RT-PCR System (Cat. No. 12574-018, Invitrogen). […]
[Identification of Exon Skipping Products Electrophoresis] […] The target bands from “ASO 1” treatment were collected and analyzed by Sanger Sequencing to evaluate exon skipping sequence.

Substance: (N→C) Fethoc-CTG(6)-ACG(6)-AA(5)A-TG(6)G-C(1O2)C—NH2 (CTNACNANATNGNC; PNA with modified bases, Fethoc N-cap, C-amide; PNA modified oligonucleotide; (1)..(14) PNA modified oligonucleotide, human acetyl-CoA carboxylase2 targeted artificial sequence; (1)..(1) Carbamated N-terminal; modified_base (3)..(3) n is a, g, c, or t; modified_base (6)..(6) n is a, g, c, or t; modified_base (8)..(8) n is a, g, c, or t; modified_base (11)..(11) n is a, g, c, or t; modified_base (13)..(13) n is a, g, c, or t) [ASO 1, peptide nucleic acid derivative targeting the 5′ splice site of exon 12 in the human ACC2 pre-mRNA]
- Tm Value, 10-mer DNA against C-Terminal (10-mer complementary DNA): 79.60 °C
- Tm Value, 10-mer DNA against N-Terminal (10-mer complementary DNA): 72.80 °C
- reduction of ACC2 mRNA compared to control (human ACC2 mRNA; 1 fM): 30%
- amount of ACC2 mRNA (human ACC2 mRNA): reduced
- Exon skipping (splice variant ACC2 mRNA) (ACC2 exon 12): concentration-dependently yielded the splice variant ACC2 mRNA lacking exon 11

Substance: (N→C) Fethoc-TA(5)C-TG(5)A-C(1O2)GA(5)-AA(5)T-G(5)G-NH2 [ASO 3]
- Tm Value, 10-mer DNA against C-Terminal (10-mer complementary DNA): 78.99 °C
- Tm Value, 10-mer DNA against N-Terminal (10-mer complementary DNA): 76.03 °C

Substance: (N→C) Fethoc-AC(1O2)T-GA(5)C-GA(5)A-A(5)TG(5)-GC(1O2)-NH2 [ASO 4]
- Tm Value, 10-mer DNA against C-Terminal (10-mer complementary DNA): 82.01 °C
- Tm Value, 10-mer DNA against N-Terminal (10-mer complementary DNA): 80.01 °C

Substance: (N→C) Fethoc-CTG(6)-AC(1O2)G-A(5)AA(5)-TG(6)G-NH2 [ASO 5]
- reduction of ACC2 mRNA compared to control (human ACC2 mRNA; 1 aM): 30%
- reduction of ACC2 mRNA compared to control (human ACC2 mRNA; 1 fM): 42%
- amount of ACC2 mRNA (human ACC2 mRNA): reduced

Substance: (N→C) Fethoc-CTG(6)-AC(1O2)G-A(5)AA(5)-TG(6)G-C(1O2)C—NH2 [ASO 6]
- reduction of ACC2 mRNA compared to control (human ACC2 mRNA; 1 aM): 30%
- reduction of ACC2 mRNA compared to control (human ACC2 mRNA; 1 fM): 50%
- amount of ACC2 mRNA (human ACC2 mRNA): reduced

Substance: (N→C) Fethoc-TA(5)C(1O2)-TGA(5)-CGA(5)-AA(5)T-G(6)GC(1O2)-C—NH2 [ASO 2]
- Tm Value, 10-mer DNA against C-Terminal (10-mer complementary DNA): 82.01 °C
- Tm Value, 10-mer DNA against N-Terminal (10-mer complementary DNA): 82.99 °C
